Assay results published in publication PMC8111326 (Journal of Molecular Endocrinology, 2021).
Counter-ions that a name gives are not always drawn. Like-named read-outs stand apart in the source and are kept apart here.

How the values were obtained:
[1] = test system: α-MSH-induced [Ca2+]i in HEK293 cells; settings: cited from earlier work
transmitter release = settings: co-administered with calcium chelator BAPTA/AM; ref Di Virgilio et al. 1988; cited from earlier work

Compound: cholera toxin
- effect on α-MSH-induced [Ca2+]i [1]: significantly attenuated

Compound: C[C@H](CCC(=O)O)C[C@H](C)C[C@H](C)C(=O)/C=C(\O)[C@H](C)C[C@H](C)C/C=C/[C@@H](C)[C@@H](O)[C@@H](C)[C@@H](O)C[C@@H]1CC[C@@](C)([C@H]2CC[C@@](C)([C@@H](C)O)O2)O1 [ionomycin, ionomycin calcium salt]
- ionomycin effect on calcium signal ([Ca2+]i in HEK293 cells; presence or absence of probenecid, ionomycin 10 µL of 0.33 mM stock in DMSO): rapid increase in calcium signal

Compound: ethylene glycol-bis (β-aminoethyl ether)-N,N,N′,N′-tetraacetic acid [EGTA]
- EGTA chelation of calcium in specific Rmin wells ([Ca2+]i in HEK293 cells; EGTA 5.5 mM final, cells co-loaded with Fura-2/AM and 10 µM EGTA in DMEM, probenecid 1 mM in esterase buffer, three independent experiments): chelated calcium in the presence of either Ca^2+-free-HG buffer or Ca^2+-free-Ward buffer
- effect of EGTA injection on basal calcium signal, optimised assay conditions (with probenecid) ([Ca2+]i in HEK293 cells; cell monolayers, EGTA 10 µL of 165 mM stock): did not reduce basal calcium signal
- EGTA effect on fluorescence ratio (340/380), specific Rmin wells ([Ca2+]i in HEK293 cells; cells depleted of calcium by EGTA prior to imaging, calcium-free buffer): rapid small decrease in fluorescence 340/380 ratio
- EGTA effect on fluorescence ratio (340/380), with probenecid ([Ca2+]i in HEK293 cells; in the presence of probenecid): either has no effect on fluorescence ratio or increases the fluorescence ratio

Compound: CCCN(CCC)S(=O)(=O)c1ccc(C(=O)O)cc1 [probenecid]
- retention of Fura-2 in cells (HEK293 cells; probenecid 1 mM vs 2.5 mM): 1 mM probenecid worked as efficiently as 2.5 mM for Fura-2 retention
- retention of Fura-2/AM and Fura-2 in cells (HEK293 cells; probenecid 2.5 mM, three independent experiments): retains Fura-2/AM and Fura-2 in HEK293 cell monolayers
- effect on transmitter release (transmitter release): profound and prolonged attenuation of transmitter release
- interference with EGTA chelation of calcium ([Ca2+]i in HEK293 cells; probenecid 1 mM in CLB-HG, Ca2+-free buffer-HG, -Ward or -Ion Optix, Supplementary Fig. 7): interfered with EGTA chelation of calcium
- interference with EGTA chelation of calcium ([Ca2+]i in HEK293 cells; probenecid 0.5–2.5 mM, pluronic acid, Supplementary Fig. 5): interferes with EGTA chelation of calcium
